experiment: in vitro; parameters: MTT cytotoxicity assay, absorbance 450 nm, normal cell line; conditions: human, wi-38 cells; read-out: Cytotoxicity IC50 uM WI38
Procedure: 3.2.3. […] The remaining substances and tools were from either Sigma or Invitrogen. Before performing the MTT experiment, cells were seeded on a 96-well plate at a density of 1.2–1.8 10,000 cells/well in a volume of 100 μL complete growth media + 100 μL of the test substance each well. Multiwell plates are an excellent choice for using the MTT method, which is used to track in vitro cytotoxicity. Using cells in the log phase of growth and keeping the ultimate cell density around 10^6 cells/cm^2 will produce the best results. Every test should include a blank with a full medium but no cells. Cultures should be moved from the incubator into a sterile workspace, such as a laminar flow hood. Each MTT [M-5655] vial should be reconstituted with 3 mL of medium or balanced salt solution devoid of phenol red and serum. 10% of the volume of the culture medium should be added to the reconstituted MTT solution. Incubate cultures again for 2–4 h, depending on the type of cell and the maximal cell density. […] After the incubation period, remove the cultures from the incubator and apply MTT Solubilization Solution [M-8910] in a quantity equal to the volume of the original culture media to dissolve the formazan crystals that formed. In a gyratory shaker, gentle blending will improve solubility. Trituration, or pipetting up and down, may occasionally be necessary to completely dissolve the MTT formazan crystals, especially in thick cultures at a wavelength of 450 nm, and measure the absorbance spectrophotometrically. The background absorbance of multiwell plates at 690 nm were subtracted from 450 nm data. A suitable plate 7. Incubate cultures at 37°C for 24 hrs. 8-After treatment of cells with the serial concentrations of the compound to be tested incubation is carried out for 48 h at 37 °C ,then the plates are to be examined under the inverted microscope and proceed for the MTT assay MTT – Cytotoxicity assay protocol The MTT method of monitoring in vitro cytotoxicity is well suited for use with multiwell plates. For best results, cells in the log phase of growth should be employed and final cell number should not exceed 10^6 cells/cm2. Each test should include a blank containing complete medium without cells. 1. Remove cultures from incubator into laminar flow hood or other sterile work area.

In order of falling CC50 at 48 h:
1. CCn1cc(C(=O)O)c(=O)c2cc(F)c(N3CCNCC3)cc21 [compound 1, norfloxacin]  54.6 µM
2. CCn1cc(-c2nc3ccccc3s2)c(=O)c2cc(F)c(N3CCN(C(=O)CCl)CC3)cc21 [compound 16, 3-(Benzo[d]thiazol-2-yl)-7-(4-(2-chloroacetyl)piperazin-1-yl)-1-ethyl-6-fluoroquinolin-4(1H)-one]  51.2 µM
3. CCOC(=O)N1CCN(c2cc3c(cc2F)c(=O)c(C(=O)O)cn3CC)CC1 [compound 7, 7-(4-(Ethoxycarbonyl)piperazin-1-yl)-1-ethyl-6-fluoro-4-oxo-1,4-dihydroquinolin-3-carboxylic acid]  47.9 µM
4. CCn1cc(-c2nc3ccccc3s2)c(=O)c2cc(F)c(N3CCNCC3)cc21 [compound 15, 3-(Benzo[d]thiazol-2-yl)-1-ethyl-6-fluoro-7-(piperazin-1-yl)quinolin-4(1H)-one]  39.2 µM
5. CCn1cc(C(=O)O)c(=O)c2cc(F)c(N3CCN(C(=O)CC#N)CC3)cc21 [compound 6]  34.1 µM
6. COc1cccc2c1C(=O)c1c(O)c3c(c(O)c1C2=O)C[C@@](O)(C(=O)CO)C[C@@H]3O[C@H]1C[C@H](N)[C@H](O)[C@H](C)O1 [Doxorubicin]  14.1 µM

Reference: publication PMC12030355 (Pharmaceuticals, 2025)
